Here are results for four compounds from patent publication US20240382629A1, “HETEROBIVALENT AND HOMOBIVALENT AGENTS TARGETING FIBROBLAST ACTIVATION PROTEIN ALPHA AND/OR PROSTATE-SPECIFIC MEMBRANE ANTIGEN” (The Johns Hopkins University, priority 2021, published 2024).

The test system of the data set is U87 tumor. Kind of data set: PET imaging and tissue biodistribution in U87 tumor-bearing mice. The class given is in vivo, mouse. Also noted: Biodistribution: Saliv. Gland: unit not given here. The method, then:
Cell uptake assays, flow cytometry, and IHC were performed as described previously. Banerjee et al., 2019; Nimmagadda et al., 2018. PET imaging and biodistribution Sequential PET imaging and biodistribution studies were conducted to quantify and validate PET imaging data. Briefly, tumor-bearing mice were administrated approximately 7.4 MBq of radiotracer in 150 μL saline via tail-vein injection. They were randomized into the indicated groups of 3-4 mice before radiotracer injection.
In Experiment 1, bilateral xenografts of U87 (right flank) and PSMA+ PC3 PIP (left flank) tumors were established in male NSG mice (n=3), which underwent imaging followed by biodistribution over 24 h. […] A biodistribution study was further conducted with U87 tumors at 2 h post-injection (n=3) to compare the tissue distribution properties of ^64Cu-FP-L1 and ^64Cu-FAPI-04.

Where [1] appears, read: head-to-head, 1 h, dose 20 μCi, n=5/group (FAPI-04 n = 3).
Setting [2] is: untitled table, radiolabel and time not given.
[3] abbreviates: untitled table, radiolabel and time not given, in %ID/g.

Each structure is given as a SMILES string.

Take `N#CC1CCCN1C(=O)CNC(=O)c1ccnc2ccc(OCCCN3CC4CN(C(=O)CN5CCN(CC(=O)O)CCN(CC(=O)O)CC5)CC4C3)cc12` (stereo not shown) [^64Cu-Sri-07-86, metal not drawn]: under setting [1], the “Biodistribution: Bladder” value turned out to be 5.55 ± 4.26 % ID/g, the “Biodistribution: Blood” value was 2.54 ± 0.90 % ID/g, the “Biodistribution: Bone” value turned out to be 2.84 ± 0.83 % ID/g and the “Biodistribution: Fat” value is reported as 0.31 ± 0.08 % ID/g. Also, under setting [1], the “Biodistribution: Heart” value turned out to be 1.04 ± 0.28 % ID/g, the “Biodistribution: Kidney” value is on record as 4.00 ± 1.28 % ID/g, the “Biodistribution: Lacrimal gland” value is 3.53 ± 2.93 % ID/g and the “Biodistribution: Liver” value is listed as 1.97 ± 0.36 % ID/g. Also, under setting [1], the “Biodistribution: Lung” value came out at 2.02 ± 0.93 % ID/g, the “Biodistribution: Muscle” value was determined as 1.65 ± 1.10 % ID/g, the “Biodistribution: Pancreas” value is on record as 1.89 ± 0.57 % ID/g and the “Biodistribution: Salivary Gland” value came out at 2.77 ± 0.53 % ID/g. For the same compound, under setting [1], the “Biodistribution: Small Intestine” value worked out at 3.15 ± 1.34 % ID/g, the “Biodistribution: Spleen” value was determined as 1.13 ± 0.42 % ID/g, the “Biodistribution: Stomach” value was 1.26 ± 0.45 % ID/g and the “Biodistribution: U87” value is on record as 6.55 ± 1.41 % ID/g.

Take `N#CC1CCCN1C(=O)CNC(=O)c1ccnc2ccc(OCCCNC(=O)CCc3cn(CC[C@H](NC(=O)c4ccc(F)nc4)C(=O)NCCNC(=O)CN4CCN(CC(=O)O)CCN(CC(=O)O)CCN(CC(=O)O)CC4)nn3)cc12` (stereo partly shown) [SRI-07-56]: under setting [2], the “Biodistribution: Saliv. Gland” value was found to be 7.59 ± 3.44. In addition, under setting [3], the “Biodistribution: Bladder” value was determined as 7.14 ± 3.21, the “Biodistribution: Blood” value was 20.47 ± 8.29, the “Biodistribution: Bone” value turned out to be 4.47 ± 1.71 and the “Biodistribution: Fat” value was found to be 0.49 ± 0.23. In addition, under setting [3], the “Biodistribution: Heart” value is 7.16 ± 3.22, the “Biodistribution: Kidney” value turned out to be 5.16 ± 2.02, the “Biodistribution: Lacrim Gland” value came out at 4.32 ± 1.56 and the “Biodistribution: Liver” value worked out at 6.87 ± 2.54. Besides, under setting [3], the “Biodistribution: Lung” value is on record as 10.70 ± 4.41, the “Biodistribution: Muscle” value was determined as 2.06 ± 0.95, the “Biodistribution: Pancreas” value is reported as 10.62 ± 3.62 and the “Biodistribution: Sm Intest” value is recorded as 9.55 ± 3.91. Also, under setting [3], the “Biodistribution: Spleen” value was found to be 4.21 ± 1.74, the “Biodistribution: Stomach” value was 3.73 ± 1.63 and the “Biodistribution: U87” value is given as 5.67 ± 2.42.

In the case of `N#C[C@@H]1CCCN1C(=O)CNC(=O)c1ccnc2ccc(OCCCN3CC4CN(C(=O)C(CCNC(=O)c5ccc(F)nc5)NC(=O)CN5CCN(CC(=O)O)CCN(CC(=O)O)CCN(CC(=O)O)CC5)CC4C3)cc12` (stereo partly shown) [SRI-08-37], under setting [2], the “Biodistribution: Saliv. Gland” value amounted to 11.70 ± 1.32. Besides, under setting [3], the “Biodistribution: Bladder” value is listed as 4.28 ± 4.14, the “Biodistribution: Blood” value is given as 4.59 ± 0.50, the “Biodistribution: Bone” value was determined as 6.37 ± 0.98 and the “Biodistribution: Fat” value amounted to 1.04 ± 0.55. Moreover, under setting [3], the “Biodistribution: Heart” value is on record as 2.24 ± 1.02, the “Biodistribution: Kidney” value stood at 2.82 ± 0.06, the “Biodistribution: Lacrim Gland” value was 9.11 ± 2.71 and the “Biodistribution: Liver” value amounted to 2.02 ± 0.13. For the same compound, under setting [3], the “Biodistribution: Lung” value was 2.96 ± 0.38, the “Biodistribution: Muscle” value is listed as 2.74 ± 0.18, the “Biodistribution: Pancreas” value is on record as 6.76 ± 1.47 and the “Biodistribution: Sm Intest” value was 3.36 ± 0.76. Under setting [3], the “Biodistribution: Spleen” value is listed as 1.45 ± 0.17, the “Biodistribution: Stomach” value is listed as 1.85 ± 0.19 and the “Biodistribution: U87” value is 20.43 ± 1.73.

Consider `N#CC1CCCN1C(=O)CNC(=O)c1ccnc2ccc(OCCCNC(=O)CCc3cn(CCCC[C@H](NC(=O)c4ccc(F)nc4)C(=O)NCCNC(=O)CN4CCN(CC(=O)O)CCN(CC(=O)O)CCN(CC(=O)O)CC4)nn3)cc12` (stereo partly shown) [SRI-08-35], for which the “Biodistribution: Saliv. Gland” value under setting [2] is listed as 7.49 ± 1.17. Under setting [3], the “Biodistribution: Bladder” value came to 1.59 ± 0.32, the “Biodistribution: Blood” value is recorded as 15.40 ± 1.08, the “Biodistribution: Bone” value amounted to 3.75 ± 0.43 and the “Biodistribution: Fat” value was 0.56 ± 0.20. For the same compound, under setting [3], the “Biodistribution: Heart” value is reported as 7.04 ± 0.93, the “Biodistribution: Kidney” value is given as 5.47 ± 0.73, the “Biodistribution: Lacrim Gland” value amounted to 5.27 ± 1.52 and the “Biodistribution: Liver” value is 6.13 ± 0.67. For the same compound, under setting [3], the “Biodistribution: Lung” value stood at 9.40 ± 1.61, the “Biodistribution: Muscle” value is given as 1.94 ± 0.74, the “Biodistribution: Pancreas” value is on record as 10.46 ± 2.88 and the “Biodistribution: Sm Intest” value was found to be 8.20 ± 2.20. Besides, under setting [3], the “Biodistribution: Spleen” value was found to be 3.08 ± 0.27, the “Biodistribution: Stomach” value came to 2.17 ± 0.30 and the “Biodistribution: U87” value is given as 7.84 ± 1.95.
